For one data set, the system named is peripheral blood. Kind of data set: Peripheral blood counts after focal irradiation. The data set is classed as in vivo, Gottingen mini-pigs. From the text:
Blood samples were collected via the ear vein into sample tubes containing ethylenediaminetetraacetic acid at different time points (before irradiation, 3, 7, 21, and 35 days after irradiation). Peripheral eosinophils were automatically counted using a Hemavet System (Drew Scientific, UK).

For a further data set, the system named is irradiated skin of pigs. Kind of data set: Skin biopsy histology (hematoxylin and eosin): basal cell density and epidermal thickness. Type of data set: in vivo, Gottingen mini-pigs. The protocol: A 5 mm punch biopsy was performed under anesthesia to obtain a skin sample from the non-irradiated healthy skin and the irradiated skin area 3, 7, 21, and 35 days after irradiation. After collection, skin biopsy samples were pinned to a cork to maintain the 5 mm size. Biopsy samples of non-irradiated skin were obtained from each pig before irradiation. All biopsy samples were processed and embedded in paraffin wax after fixation in 10% buffered formalin, then cut into 4 μm thick coronal sections and deparaffinized. Next, the sections were stained with hematoxylin and eosin and examined by optical microscopy. The longest rete ridge on each slide was selected and measured from the bottom of the basal layer to the bottom of the stratum corneum, avoiding the areas in which the inclusion appeared to be oblique. The mean values were then calculated based on the measurements of each section on each slide. The cell density of the basal layers was determined by counting the cells in the basement membrane at a depth of at least 5 mm. The results were expressed as the number of cells per millimeter of basement membrane.
The data were expressed as the means±the standard error of the mean (SEM) values. Differences between groups were evaluated by one-way analysis of variance (ANOVA) followed by a Student-Newman-Keuls post hoc test for multiple comparisons. In all cases, a p<0.05 was considered significant.

Another data set relates to ICR mice. Kind of data set: X-ray-induced oral mucositis in mice: survival and behaviour. The data set is classed as in vivo. The protocol:
In a second example for illustrating embodiments of the present invention, six-week-old ICR mice (30-40 g) obtained from Institute of Animal Breeding and Genetics, University of Gottingen, Germany were used. The animals were housed in a room maintained at 22±2° C. under a 12-h light-dark cycle with lights on at 7:00 a.m. Mice were fed a standard rodent diet and had free access to water. In addition, no antibiotic supplements were used. All animal experiments were performed in compliance to The German Animal Welfare Act. The mice (n=20 per group) were anesthetized (pentobarbital sodium, 50 mg/kg body weight, i.p.) and then irradiated. Mice had to be irradiated only at the tip of the tongue, so the rest of the body was shielded with a lead device (thickness, 0.5 mm). The tongue was fixed to the outer surface of the lead device using adhesive tape and irradiated with a single radiation dose of 20 Gy. Radiation was generated using a 150 kV potential (20 mA) X-ray source at a focal distance of 350 mm and beam-hardened by a 1.0-mm aluminum filtration system (MBR-1520R-3; Hitachi, Tokyo, Japan). The dose rate was 5.1 Gy/min. The 6OHM-6-HITC compound was dissolved in a small volume of 1 M NaOH solution. The pH was adjusted to 7 with 1 M HCL. […] The body weight was recorded and the tongues were observed daily after irradiation. […]

For another data set, the system named is mouse tongues. Kind of data set: X-ray-induced oral mucositis in mice: oral mucositis score. The data set is classed as in vivo, ICR mice. How it is done: In a second example for illustrating embodiments of the present invention, six-week-old ICR mice (30-40 g) obtained from Institute of Animal Breeding and Genetics, University of Gottingen, Germany were used. The animals were housed in a room maintained at 22±2° C. under a 12-h light-dark cycle with lights on at 7:00 a.m. Mice were fed a standard rodent diet and had free access to water. In addition, no antibiotic supplements were used. All animal experiments were performed in compliance to The German Animal Welfare Act. The mice (n=20 per group) were anesthetized (pentobarbital sodium, 50 mg/kg body weight, i.p.) and then irradiated. Mice had to be irradiated only at the tip of the tongue, so the rest of the body was shielded with a lead device (thickness, 0.5 mm). The tongue was fixed to the outer surface of the lead device using adhesive tape and irradiated with a single radiation dose of 20 Gy. Radiation was generated using a 150 kV potential (20 mA) X-ray source at a focal distance of 350 mm and beam-hardened by a 1.0-mm aluminum filtration system (MBR-1520R-3; Hitachi, Tokyo, Japan). The dose rate was 5.1 Gy/min. The 6OHM-6-HITC compound was dissolved in a small volume of 1 M NaOH solution. The pH was adjusted to 7 with 1 M HCL. The concentration was adjusted to 3 mg/mL or 15 mg/mL in 0.9% (physiologic) saline solution. The body weight was recorded and the tongues were observed daily after irradiation. 6OHM-6-HITC was injected via the intraperitoneal route 30 min before irradiation. The control group was irradiated but without administering the 6OHM-6-HITC compound.
The scoring of oral mucositis was based on a modification of the method of Sonis et al. To assess the severity of oral mucositis, mice were anesthetized with isoflurane every day. The oral mucositis score was: 0=normal; 1=partial hyperemia, erythema and swelling; 2=overall hyperemia, erythema and swelling; 3=epidermolysis, hyperemia and erythema; 4=extensive epidermolysis and bleeding; 5=bleeding and abscesses. Myeloperoxidase (MPO) activity is a marker for neutrophils in inflamed tissue. MPO activity was measured in mouse tongues using a modification of the method of Chen et al. After mice had been killed by cervical dislocation 12 days after irradiation, tongue samples (n=10 per group) were removed and stored at −70° C. until required for assay. […] MPO activity was measured using a Microplate Reader (NJ-2300; Biotec, Tokyo, Japan) at 450 nm. MPO activity was calculated by measuring the slope of absorbance calibrated using MPO standards (Wako Biochemicals) and expressed as MPO/g tongue. […] TBARS levels were measured using the Microplate Reader (Biotec) at 540 nm. TBARS levels were calculated by measuring the slope of absorbance calibrated using TBARS standards and expressed as TBARS/g tongue. […]

Where [1] appears, read: 21 and 35 days after irradiation, decrease not significant.

Molecules are shown by their SMILES.

Take `COc1cc2c(CCCCN=C=S)c[nH]c2cc1O` [6OHM-6-HITC]: in the data set on peripheral blood (setting [1]), the “eosinophils in the blood” value is given as “decreased”. Moreover, the “neutrophils in the blood” value in the data set with peripheral blood (setting [1]) was “decreased”. The “radioprotective effect on peripheral blood (white blood cell count)” value in the data set on peripheral blood (initially (7 days after exposure)) was “did not show a radioprotective effect”. The “basal cell counts (density) in the epidermis” value in the data set with irradiated skin of pigs (21 days after irradiation, p<0.01 vs. vehicle-treated irradiation group) is listed as “significantly ameliorated”; in the data set on irradiated skin of pigs (35 days after irradiation, p<0.05 vs. vehicle-treated irradiation group), “significantly ameliorated”. Further, in the data set on irradiated skin of pigs (35 days after irradiation, p<0.01 vs. vehicle-treated irradiation group), the “thickness of the epidermis” value is given as “prevented this decrease”. The behavioral disorders entry with ICR mice (300 mg/kg i.p.) is on record as “not observed”. The “survival after X-ray irradiation” value in the data set on ICR mice (30 and 300 mg/kg i.p. 30 min before 20 Gy irradiation of the tongue) is “significant difference in survival was not found”. Moreover, the “total oral mucositis score between day-0 and day-12 vs. control group” value in the data set with mouse tongues (30 mg/kg i.p.) and in the data set with mouse tongues (300 mg/kg i.p.) was “significantly lower” in each case. The “oral mucositis score vs. control group” value was “significantly lower” with mouse tongues (300 mg/kg i.p., day-10) and “significantly lower” in the data set with mouse tongues (300 mg/kg i.p., day-12).

The values above are taken from patent US12178800B2, “Sulforaphane-melatonin-like compound” (priority 2018, dated 2024).
